≈ marks a conversion by molar mass, not a printed value.
Assays:
[1] = Solubility of cyclodextrins in supercritical CO2 under process conditions (Example 3); details: for solubility in supercritical CO2: experimental conditions: 40° C., 3,500 psi
[2] = Relative bioavailability test: CBD concentration in water by HPLC-UV (Example 6); format: physicochemical; details: after 32 hours elapsed time, 0.45 μm filtered
Description: Relative bioavailability tests of the cannabinoid ultrafine nanoparticles obtained as described in Example 4 (test samples) as compared to cannabinoid isolates in water (control samples) were performed using a high performance liquid chromatography (HPLC) separator equipped with a UV detector to determine the concentration of CBD in each sample. Control samples were prepared by filtering 1 ml of each sample through a 0.45 μm filter into a 2 ml HPLC vial and 1 ml of methanol (MeOH) was added to each sample vial. HPLC mobile phase was comprised of 65% acetonitrile and 35% water. A flow rate of 1 ml per minute led to the elution of CBD after approximately 4.5 minutes.
A percentage area was measured after 32 hours elapsed time, which represents the amount of CBD in each sample relative to the background signal created by the MeOH in each sample.

[3] = Visual solubility in simulated stomach conditions (Example 5); format: physicochemical
Description: Bioavailability of the cannabinoid ultrafine nanoparticles obtained as described in Example 4 was assessed by visually evaluating the solubility of the fine nanoparticles in simulated stomach conditions. 0.5 g of NaCl was added to a 0.155 M solution of HCl in water to replicate stomach acidic conditions. 10 mg of the fine nanoparticles, 10 mg of the isolates in crystalline form, and 10 mg of the distillates were each placed in vials containing 10 ml of the acidic solution and incubated for 10 hours at 37° C. At the end of the 10-hour period, only minimal solubility of the preparations was observed. Additional 10 ml of the acidic solution were added, and the mixtures were incubated for 10 more hours at 37° C. At the end of the 20-hour period, the cannabinoid nanoparticles dissolved in the acidic solution.

[4] = Visual solubility in water before and after processing (FIGS. 3-4); format: physicochemical; details: FIGS. 3 and 4
From the text: The crystals are insoluble in acid and in water.

[5] = isolates currently available; cited from earlier work

**Q.** Which “solubility in supercritical CO2” value [1] does the source give for `CC(=O)OC[C@H]1O[C@@H]2O[C@H]3[C@H](OC(C)=O)[C@@H](OC(C)=O)[C@@H](O[C@H]4[C@H](OC(C)=O)[C@@H](OC(C)=O)[C@@H](O[C@H]5[C@H](OC(C)=O)[C@@H](OC(C)=O)[C@@H](O[C@H]6[C@H](OC(C)=O)[C@@H](OC(C)=O)[C@@H](O[C@H]7[C@H](OC(C)=O)[C@@H](OC(C)=O)[C@@H](O[C@H]8[C@H](OC(C)=O)[C@@H](OC(C)=O)[C@@H](O[C@H]1[C@H](OC(C)=O)[C@H]2OC(C)=O)O[C@@H]8COC(C)=O)O[C@@H]7COC(C)=O)O[C@@H]6COC(C)=O)O[C@@H]5COC(C)=O)O[C@@H]4COC(C)=O)O[C@@H]3COC(C)=O` [ABCD, β-cyclodextrin heneicosaacetate] here?
**A.** 1.3 wt. %

**Q.** For α-cyclodextrin exadeacetate [AACD], which “solubility in supercritical CO2” value [1] is on record?
**A.** 1.1 wt. %

**Q.** Which results are given for `C=C(C)[C@@H]1CCC(C)=C[C@H]1c1c(O)cc(CCCCC)cc1O` [CBD isolate, cannabidiol]?
**A.** percentage area (amount of CBD relative to MeOH background signal) [2]: 0.7706%; solubility in acidic solution after 20 hours (visual) ([3]; 10 mg in 20 ml 0.155 M HCl with NaCl, 37° C., 20 hours): complete insolubility; solubility in acid (visual) ([3]; acidic solvent resembling stomach conditions, FIGS. 3 and 5): insoluble; solubility in water (visual) [4]: insoluble; solubility in water [5]: 12.6 µg/mL (≈ 40.1 µM)

**Q.** Which “solubility under the process conditions (supercritical CO2)” value ([1]; 40° C., 3,500 psi) does the source give for Cyclodextrin here?
**A.** insoluble

Source: patent US20220387339A1, “SUPERFINE COMPOUNDS AND PRODUCTION THEREOF” (Esolate Ltd, priority 2019, published 2022)
